In ChEMBL document CHEMBL4680295, “Structure guided development of potent piperazine-derived hydroxamic acid inhibitors targeting falcilysin” (Bioorg Med Chem Lett, 2021) one finds Ki and EC50 data, which are given here for 27 compounds.

Some results are limits rather than exact numbers.

Assay [1] has as its target T1, Falcilysin (Plasmodium falciparum (isolate 3D7), UniProt Q76NL8).
T1 sequence (Q76NL8 whole entry): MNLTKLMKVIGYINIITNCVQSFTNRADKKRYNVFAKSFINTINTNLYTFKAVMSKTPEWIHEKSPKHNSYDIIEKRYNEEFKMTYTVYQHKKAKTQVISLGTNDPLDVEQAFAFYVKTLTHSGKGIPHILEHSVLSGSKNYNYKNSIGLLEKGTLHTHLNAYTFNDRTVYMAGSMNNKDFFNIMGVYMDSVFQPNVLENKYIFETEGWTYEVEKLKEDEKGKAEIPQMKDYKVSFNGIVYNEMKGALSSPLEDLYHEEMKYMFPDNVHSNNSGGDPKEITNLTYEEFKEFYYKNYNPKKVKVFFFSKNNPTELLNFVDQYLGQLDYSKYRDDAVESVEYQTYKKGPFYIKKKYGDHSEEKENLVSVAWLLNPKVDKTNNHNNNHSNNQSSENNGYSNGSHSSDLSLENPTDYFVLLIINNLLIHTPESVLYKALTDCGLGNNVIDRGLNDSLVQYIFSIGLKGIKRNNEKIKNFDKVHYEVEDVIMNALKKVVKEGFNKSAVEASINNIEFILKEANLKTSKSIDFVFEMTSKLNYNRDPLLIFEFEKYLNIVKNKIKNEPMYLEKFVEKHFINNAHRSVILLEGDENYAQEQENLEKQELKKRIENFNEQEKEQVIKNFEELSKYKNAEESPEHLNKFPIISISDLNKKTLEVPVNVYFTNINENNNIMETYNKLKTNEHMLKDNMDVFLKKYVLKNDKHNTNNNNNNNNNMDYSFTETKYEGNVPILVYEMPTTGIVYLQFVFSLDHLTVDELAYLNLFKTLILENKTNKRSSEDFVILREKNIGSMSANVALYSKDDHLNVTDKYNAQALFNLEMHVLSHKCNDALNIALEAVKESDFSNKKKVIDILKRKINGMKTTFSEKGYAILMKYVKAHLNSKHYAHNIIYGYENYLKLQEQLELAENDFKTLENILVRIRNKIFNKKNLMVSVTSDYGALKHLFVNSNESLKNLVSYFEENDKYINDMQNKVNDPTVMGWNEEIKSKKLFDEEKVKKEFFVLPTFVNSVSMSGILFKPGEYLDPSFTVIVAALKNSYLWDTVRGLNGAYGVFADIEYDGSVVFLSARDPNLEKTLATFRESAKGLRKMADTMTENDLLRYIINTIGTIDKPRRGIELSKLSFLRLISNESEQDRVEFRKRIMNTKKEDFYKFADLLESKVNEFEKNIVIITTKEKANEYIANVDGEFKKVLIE
The experiment in a line: Inhibition of Plasmodium falciparum FLN.

Assay [2] concerns Plasmodium falciparum. Description: Parasiticidal activity against Plasmodium falciparum 3D7. In kind it is functional, organism-based.

Regarding `O=C(NO)C1CN(C(=O)c2ccc(-c3ccccc3)cc2)CCN1S(=O)(=O)c1ccc(Br)cc1` (centres undefined), the Ki in assay [1] stood at 3 µM. The compound further came in with an EC50 in assay [2] of 2.6 µM.

On to `CNC(=O)C1CN(S(=O)(=O)c2ccc(-c3ccccc3)cc2)CCN1S(=O)(=O)c1cccc(CCc2ccccc2)c1` (centres undefined), for which the Ki in assay [1] amounted to 2.5 µM. The compound also registered an EC50 in assay [2] of 2.1 µM.

On to `COC(=O)C1CN(S(=O)(=O)c2ccc(-c3ccccc3)cc2)CCN1S(=O)(=O)c1ccc(/C=C/c2ccccc2)cc1` (centres undefined), for which, in assay [1], the Ki came to 0.6 µM. For the same compound, in assay [2], the half-maximal effective concentration (EC50) was found to be 0.8 µM.

`C#Cc1ccc(S(=O)(=O)N2CCN(C(=O)c3ccc(I)cc3)CC2C(=O)NO)cc1` (centres undefined) yielded a Ki in assay [1] of more than 25 µM. The EC50 in assay [2] is more than 25 µM.

As for `O=C(NO)C1CN(C(=O)c2cccc3ccccc23)CCN1S(=O)(=O)c1ccc(Br)cc1` (centres undefined), the inhibitory constant (Ki) in assay [1] is 9 µM. Also, a half-maximal response in assay [2] (EC50) required 4 µM.

In the case of `O=C(NO)C1CN(Cc2ccc(-c3ccccc3)cc2)CCN1S(=O)(=O)c1ccc(I)cc1` (centres undefined), the Ki in assay [1] stood at 4.9 µM. For the same compound, the EC50 in assay [2] worked out at 5 µM.

Compound `CNC(=O)C1CN(S(=O)(=O)c2ccc(-c3cccnc3OC)cc2)CCN1S(=O)(=O)c1ccc(-c2ccccc2)cc1` (centres undefined) came in with a Ki in assay [1] of 4 µM. Further, the EC50 in assay [2] was found to be 1.4 µM.

As for `O=C(NO)C1CN(C(=O)c2ccc(-c3ccccc3)cc2)CCN1S(=O)(=O)c1ccc(-c2ccccc2)cc1` (centres undefined), in assay [1], the Ki was determined as 10 µM. This compound returned an EC50 in assay [2] of more than 25 µM.

As for `CNC(=O)C1CN(S(=O)(=O)c2ccc(-c3ccccc3)cc2)CCN1S(=O)(=O)c1cccc(-c2cccnc2OC)c1` (centres undefined), in assay [1], affinity was put at a Ki of 4 µM. Moreover, the EC50 in assay [2] came out at 6 µM.

For `O=C(NO)C1CN(S(=O)(=O)c2ccc(-c3ccccc3)cc2)CCN1S(=O)(=O)c1cccc(Br)c1` (centres undefined), in assay [1], the affinity corresponds to a Ki of 1.4 µM. Besides, in assay [2], it took 1.6 µM to reach a half-maximal effect (EC50).

Consider `COC(=O)C1CN(S(=O)(=O)c2ccc(-c3ccccc3)cc2)CCN1S(=O)(=O)c1ccc(-c2ccccc2)cc1` (centres undefined), for which, in assay [1], the Ki was 2.5 µM. The same compound yielded an EC50 in assay [2] of 2.1 µM.

The compound `O=C(NO)C1CN(C(=O)c2ccc3ccccc3c2)CCN1S(=O)(=O)c1ccc(Br)cc1` (centres undefined) had a Ki in assay [1] of 3.5 µM. It took 7 µM to reach a half-maximal effect in assay [2] (EC50).

The compound `O=C(NO)C1CN(C(=O)c2ccc(-c3ccccc3)cc2)CCN1S(=O)(=O)c1ccc(-c2ccsc2)cc1` (centres undefined) returned a Ki in assay [1] of 11 µM. Besides, in assay [2], the EC50 came to 6 µM.

In assay [1], `CNC(=O)C1CN(S(=O)(=O)c2ccc(I)cc2)CCN1S(=O)(=O)c1ccc(-c2ccccc2)cc1` (centres undefined) came in with a Ki of 2.6 µM. Besides, the midpoint of the response in assay [2], the EC50, lay at 9 µM.

In turn, `O=C(NO)C1CN(S(=O)(=O)c2ccc(Cc3ccccc3)cc2)CCN1S(=O)(=O)c1ccc(Br)cc1` (centres undefined) yielded an inhibition constant Ki in assay [1] of more than 25 µM. In assay [2], this compound returned an EC50 of more than 25 µM.

In assay [1], `O=C(NO)C1CN(S(=O)(=O)c2ccc(-c3ccccc3)cc2)CCN1S(=O)(=O)c1cccc(-c2ccccc2)c1` (centres undefined) registered a Ki of 0.9 µM. In assay [2], a half-maximal effect (EC50) was put at 7 µM.

For the compound `O=C(NO)C1CN(C(=O)c2ccc(I)cc2)CCN1S(=O)(=O)c1ccc(Br)cc1` (centres undefined), in assay [1], the Ki was more than 25 µM. Moreover, the EC50 in assay [2] is more than 25 µM.

`CNC(=O)C1CN(S(=O)(=O)c2ccc(-c3ccccc3)cc2)CCN1S(=O)(=O)c1cccc(-c2ccc(C(=O)c3ccccc3)cc2)c1` (centres undefined) returned a Ki in assay [1] of 1.7 µM. This compound also displayed an EC50 in assay [2] of 0.9 µM.

As for `O=C(NO)C1CN(Cc2ccc(-c3ccccc3)cc2)CCN1S(=O)(=O)c1ccc(Br)cc1` (centres undefined), the inhibition constant (Ki) in assay [1] amounted to 5 µM. Moreover, the EC50 in assay [2] was found to be 10 µM.

In assay [1], `O=C(NO)C1CN(C(=O)c2ccc(-c3ccccc3)cc2)CCN1S(=O)(=O)c1ccc(I)cc1` (centres undefined) came in with a Ki of 4 µM. This compound also gave an EC50 in assay [2] of 3 µM.

In turn, `C#Cc1ccc(S(=O)(=O)N2CCN(C(=O)c3ccc(C(=O)c4ccccc4)cc3)CC2C(=O)NO)cc1` (centres undefined) gave a Ki in assay [1] of more than 25 µM. The same compound showed an EC50 in assay [2] of 6 µM.

Turning to `CNC(=O)C1CN(S(=O)(=O)c2cccc(Br)c2)CCN1S(=O)(=O)c1ccc(-c2ccccc2)cc1` (centres undefined), the Ki in assay [1] was 1.4 µM. In addition, the EC50 in assay [2] was 4.7 µM.

Take `C#Cc1ccc(S(=O)(=O)N2CCNCC2C(=O)NO)cc1` (centres undefined): the Ki in assay [1] is more than 25 µM. In assay [2], this compound returned an EC50 of more than 25 µM.

`COC(=O)C1CN(Cc2ccc(-c3ccccc3)cc2)CCN1S(=O)(=O)c1ccc(Br)cc1` (centres undefined) had a Ki in assay [1] of 4 µM. In addition, in assay [2], the EC50 amounted to 1.4 µM.

`O=C(NO)C1CN(S(=O)(=O)c2ccc(/C=C/c3ccccc3)cc2)CCN1S(=O)(=O)c1ccc(-c2ccccc2)cc1` (centres undefined) came in with a Ki in assay [1] of 1.1 µM. The compound further gave an EC50 in assay [2] of 16 µM.

On to `O=C(NO)C1CN(S(=O)(=O)c2ccc(-c3ccccc3)cc2)CCN1S(=O)(=O)c1ccc(-c2ccccc2)cc1` (centres undefined), for which the Ki in assay [1] was determined as 0.22 µM. Also, the EC50 in assay [2] was determined as 7 µM.

Regarding `CNC(=O)C1CN(S(=O)(=O)c2ccc(-c3ccccc3)cc2)CCN1S(=O)(=O)c1cccc(/C=C/c2ccccc2)c1` (centres undefined), the affinity in assay [1], expressed as Ki, was 1 µM. Besides, the EC50 in assay [2] stood at 5 µM.
